The record followed here is patent US20120129870A1, “PIPERAZINYL DERIVATIVES USEFUL AS MODULATORS OF THE NEUROPEPTIDE Y2 RECEPTOR” (priority 2007, published 2012).

As a reminder, the IC50 is the point on the concentration scale where inhibition reaches its midpoint. High values mean weaker potency in that assay, low ones greater potency in that assay.

The test concerns the target T1, NPY Y2 receptor (Homo sapiens, UniProt P49146).
T1 sequence (P49146 1-381): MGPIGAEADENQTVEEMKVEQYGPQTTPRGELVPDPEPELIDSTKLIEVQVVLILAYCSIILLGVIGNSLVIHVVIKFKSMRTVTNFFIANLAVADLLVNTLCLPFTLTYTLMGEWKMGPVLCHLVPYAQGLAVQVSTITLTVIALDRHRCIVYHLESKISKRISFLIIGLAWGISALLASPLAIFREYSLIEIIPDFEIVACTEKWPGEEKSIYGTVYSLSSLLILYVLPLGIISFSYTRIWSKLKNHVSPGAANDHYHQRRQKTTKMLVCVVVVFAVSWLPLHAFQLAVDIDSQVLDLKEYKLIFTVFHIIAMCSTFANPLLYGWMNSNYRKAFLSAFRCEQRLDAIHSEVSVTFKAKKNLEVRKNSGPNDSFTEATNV
The experiment in a line: Neuropeptide Y2 radioligand binding assay ([125I]PYY, KAN-Ts membranes). On the set-up: endogenous in cells; host or cells: KAN-Ts cells (membrane preparation). The note with it: KAN-Ts membranes endogenously expressing Y2, [125I]PYY (80 pM), 1 h at rt. As for the experimental part: KAN-Ts endogenously expressing Y2 receptors were used for the radioligand binding assay. Cells were grown to confluence on 150 cm^2 tissue culture plates, washed with phosphate-buffered saline (PBS), and scraped into 50 mL tubes. After centrifugation, the supernatant was aspirated, and the pellets frozen and stored at −80° C. Thawed pellets were homogenized with a polytron tissue grinder for 15 sec in 20 mM Tris-HCl, 5 mM EDTA. The homogenate was centrifuged at 800×g for 5 min and the collected supernatant was recentrifuged at 25000×g for 25 min. The resulting pellet was resuspended in binding buffer (20 mM HEPES, 120 mM NaCl, 0.22 mM KH2PO4, 1.3 mM CaCl2, 0.8 mM MgSO4). Membranes were incubated with [^125I]PYY (80 pM) in the presence or absence of test compound for 1 h at rt. The reaction was stopped by filtration through GF/C filter plates pre-soaked in 0.3% polyethylenimine and subsequently washed with Tris 50 mM, 5 mM EDTA buffer. Plates were dried for 1 h in a 55° C. oven, scintillation fluid was added and the radioactivity was counted in a Packard TopCount. Specific binding to the NPY receptor subtypes was determined by radioactivity that was bound in the presence of […]. Each binding experiment was repeated three to eight times, each in duplicate. IC50 values (i.e. concentration of unlabelled peptide or antagonist required to compete for 50% of specific binding to the radioligand) were calculated using the GraphPad Prism software (GraphPad Software Inc., San Diego Calif.) with a fit to a sigmoidal dose response curve. Apparent K, values were calculated as Ki=IC50/(1+C/KD), where C is concentration of the radioligand.

Regarding `O=C(Nc1ccc(N2CCN(C(c3ccccc3)c3ncco3)CC2)c(F)c1)C1CCC(F)(F)CC1` (stereo not shown) [Compound 108, 4,4-Difluoro-cyclohexanecarboxylic acid {3-fluoro-4-[4-(oxazol-2-yl-phenyl-methyl)-piperazin-1-yl]-phenyl}-amide], the IC50 is greater than 10000 nM.

Turning to `N#Cc1cc(NC(=O)C2CCC(F)(F)CC2)ccc1N1CCN(C(c2ccccc2)c2ncco2)CC1` (stereo not shown) [Compound 109, 4,4-Difluoro-cyclohexanecarboxylic acid {3-cyano-4-[4-(oxazol-2-yl-phenyl-methyl)-piperazin-1-yl]-phenyl}-amide], the IC50 worked out at 3600 nM.

With `CC(CC(F)(F)F)C(=O)Nc1ccc(N2CCN(C(c3ccccc3)c3ncco3)CC2)c(F)c1` (stereo not shown) [Compound 111, 4,4,4-Trifluoro-N-{3-fluoro-4-[4-(oxazol-2-yl-phenyl-methyl)-piperazin-1-yl]-phenyl}-2-methyl-butyramide], the IC50 came to 360 nM. Against the preceding molecule, the IC50 is about 10-fold lower.

As for `N#Cc1cc(NC(=O)C2CCCCC2)ccc1N1CCN(C(c2ccccc2)c2ncco2)CC1` (stereo not shown) [Compound 112, Cyclohexanecarboxylic acid {3-cyano-4-[4-(oxazol-2-yl-phenyl-methyl)-piperazin-1-yl]-phenyl}-amide], the IC50 was determined as 430 nM.

`CCC(CC)C(=O)Nc1ccc(N2CCN(C(c3ccccc3)C3CCOC3)CC2)c(F)c1` (stereo not shown) [Compound 114, 2-Ethyl-N-(3-fluoro-4-{4-[phenyl-(tetrahydro-furan-3-yl)-methyl]-piperazin-1-yl}-phenyl)-butyramide] displayed an IC50 of 460 nM.

Molecule `CCC(CC)C(=O)Nc1ccc(N2CCN(C(c3ccccc3)C3C(C)C3(Cl)Cl)CC2)c(F)c1` (stereo not shown) [Compound 115, N-(4-{4-[(2,2-Dichloro-3-methyl-cyclopropyl)-phenyl-methyl]-piperazin-1-yl}-3-fluoro-phenyl)-2-ethyl-butyramide] showed an IC50 of 450 nM. The IC50 values of the last two molecules are within 1.5-fold of each other.

`CCC(CC)C(=O)Nc1ccc(N2CCN(C(c3ncco3)C3CCC3)CC2)c(F)c1` (stereo not shown) [Compound 116, N-{4-[4-(Cyclobutyl-oxazol-2-yl-methyl)-piperazin-1-yl]-3-fluoro-phenyl}-2-ethyl-butyramide] gave an IC50 of 410 nM.

On to `CCC(CC)C(=O)Nc1ccc(N2CCN(C(c3ncco3)C3CCCC3)CC2)c(F)c1` (stereo not shown) [Compound 117, N-{4-[4-(Cyclopentyl-oxazol-2-yl-methyl)-piperazin-1-yl]-3-fluoro-phenyl}-2-ethyl-butyramide], for which the half-maximal inhibitory concentration (IC50) was found to be 310 nM. This IC50 and that of the molecule before are within 1.5-fold of each other.

`CCC(CC)C(=O)Nc1ccc(N2CCN(C(c3ccc(F)cc3)c3ncco3)CC2)c(F)c1` (stereo not shown) [Compound 120, 2-Ethyl-N-(3-fluoro-4-{4-[(4-fluoro-phenyl)-oxazol-2-yl-methyl]-piperazin-1-yl}-phenyl)-butyramide] gave an IC50 of 770 nM. This IC50 lies about 2.5-fold higher than the previous one.

`CCC(CC)C(=O)Nc1ccc(N2CCN(C(c3ncco3)C3CCCCC3)CC2)c(F)c1` (stereo not shown) [Compound 122, N-{4-[4-(Cyclohexyl-oxazol-2-yl-methyl)-piperazin-1-yl]-3-fluoro-phenyl}-2-ethyl-butyramide] returned an IC50 of 430 nM.

`CCC(CC)C(=O)Nc1ccc(N2CCN(C(C#N)c3ccccc3C#N)CC2)c(F)c1` (stereo not shown) [Compound 136, N-(4-{4-[Cyano-(2-cyano-phenyl)-methyl]-piperazin-1-yl}-3-fluoro-phenyl)-2-ethyl-butyramide]: the half-maximal inhibitory concentration (IC50) was 9800 nM.

In the case of `CCC(CC)C(=O)Nc1ccc(N2CCN(C(C#N)c3ccccc3OC)CC2)c(F)c1` (stereo not shown) [Compound 137, N-(4-{4-[Cyano-(2-methoxy-phenyl)-methyl]-piperazin-1-yl}-3-fluoro-phenyl)-2-ethyl-butyramide], the 50% inhibitory concentration (IC50) turned out to be 1200 nM.

The molecule `CCC(CC)C(=O)Nc1ccc(N2CCN(C(C#N)c3ccccn3)CC2)c(F)c1` (stereo not shown) [Compound 138, N-{4-[4-(Cyano-pyridin-2-yl-methyl)-piperazin-1-yl]-3-fluoro-phenyl}-2-ethyl-butyramide] returned an IC50 greater than 10000 nM.
